Results published in US5688774A (priority 1995, dated 1997).
Read-outs that look alike come from different tables or passages of the source.

Experiments:
[1] = target: T1, rat A3 adenosine receptors (Rattus norvegicus, UniProt P28647); assay: Inhibition of adenylate cyclase in CHO cells stably transfected with rat A3 adenosine receptors; format: cell-based; set-up: key to Effect on IB-MECA dose-resp. curve: no effect; details: for agonist efficacy in inhibition of adenylate cyclase: via rat A3 receptors; for Ratio Conc./Ki (A3): test concentration divided by Ki (A3)
T1 construct: expressed in transfected cells; host or cells: CHO cells, stably transfected
T1 sequence (P28647 1-320): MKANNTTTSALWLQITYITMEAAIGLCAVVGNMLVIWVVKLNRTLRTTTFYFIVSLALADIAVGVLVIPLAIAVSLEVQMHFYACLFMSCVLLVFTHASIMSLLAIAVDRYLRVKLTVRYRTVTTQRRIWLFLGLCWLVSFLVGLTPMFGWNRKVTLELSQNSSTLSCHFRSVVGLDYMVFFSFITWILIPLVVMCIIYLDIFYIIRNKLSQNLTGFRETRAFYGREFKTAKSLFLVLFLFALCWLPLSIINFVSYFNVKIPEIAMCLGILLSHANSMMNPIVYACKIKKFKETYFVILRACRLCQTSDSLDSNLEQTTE

[2] = tested on: NMDA-induced seizures in mice; details: cited from earlier work
[3] = tested on: ischemic model in gerbils; details: cited from earlier work
A3 receptors [4] = target: T2, A3 receptors (Rattus norvegicus, UniProt P28647); assay: A3 receptor binding selectivity; details: in words
T2 sequence (P28647 1-320): T1 sequence (P28647 1-320)

rat brain A1 receptor = target: T3, rat brain A1 receptor (Rattus norvegicus, UniProt P25099); assay: Displacement of [^3 H]PIA binding at A1 receptors
T3 construct: Rat cerebral cortical and striatal membranes were prepared; from tissue; host or cells: rat brain membranes (cerebral cortical)
T3 sequence (P25099 1-326): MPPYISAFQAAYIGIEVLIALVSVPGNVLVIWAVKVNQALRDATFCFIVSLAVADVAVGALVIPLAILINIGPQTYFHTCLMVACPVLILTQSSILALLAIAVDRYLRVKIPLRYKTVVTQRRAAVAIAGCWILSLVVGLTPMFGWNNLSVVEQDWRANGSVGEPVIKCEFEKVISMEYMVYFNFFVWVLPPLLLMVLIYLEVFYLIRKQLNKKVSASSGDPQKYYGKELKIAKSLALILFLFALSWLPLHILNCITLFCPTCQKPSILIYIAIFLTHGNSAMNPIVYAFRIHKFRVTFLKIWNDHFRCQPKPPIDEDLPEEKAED

rat brain A2a receptor = target: T4, rat brain A2a receptor (Rattus norvegicus, UniProt P30543); assay: Displacement of [^3 H]CGS 21680 binding at A2a receptors
T4 construct: A2 receptors from rat striatal membranes; from tissue; host or cells: rat striatal membranes
T4 sequence (P30543 whole entry): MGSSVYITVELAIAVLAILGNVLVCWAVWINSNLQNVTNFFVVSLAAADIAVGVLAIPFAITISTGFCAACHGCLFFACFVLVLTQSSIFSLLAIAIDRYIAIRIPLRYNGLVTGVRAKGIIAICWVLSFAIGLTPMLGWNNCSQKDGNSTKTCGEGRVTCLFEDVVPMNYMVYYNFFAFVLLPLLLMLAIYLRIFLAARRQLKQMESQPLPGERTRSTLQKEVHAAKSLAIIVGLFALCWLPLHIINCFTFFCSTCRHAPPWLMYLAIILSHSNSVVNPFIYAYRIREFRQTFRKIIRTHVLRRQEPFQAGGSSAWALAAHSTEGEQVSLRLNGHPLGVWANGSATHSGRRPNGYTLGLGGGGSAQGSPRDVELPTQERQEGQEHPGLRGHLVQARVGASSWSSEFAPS
Protocol: Rat cerebral cortical and striatal membranes were prepared (Jacobson et al., J. Med. Chem., 35, 4143-4149 (1992)) and treated with ADA for 30 min at 37° C. prior to storage at -70° C.
The stock solutions were diluted with DMSO to a concentration of ≤0.1 mM prior to addition to the aqueous medium. The final concentration of DMSO in the assay medium was generally 2%.
At least six different concentrations spanning three orders of magnitude, adjusted appropriately for the IC50 of each compound, were used. […]. Pharmacol., 22, 3099-3108 (1973)).

A3 receptors [5] = target: T2, A3 receptors; details: in words; Zhou et al.; cited from earlier work
A3 receptor = details: coadministered with a xanthine antagonist that does not act at A3 receptors; cited from earlier work
[6] = [^3 H]PIA, rat brain membranes, Ki ± S.E.M., n = 3-6
[7] = [^3 H]CGS 21680, rat brain membranes, Ki ± S.E.M., n = 3-6
[8] = CHO, 1 μM forskolin, average ± S.E.M. for 2-3 determinations or a single value, read-out: % Inhib. (adenylate cyclase)

Row | Ki (rat brain A2a receptor; [7]) [µM] | SMILES | Ki (rat brain A1 receptor; [6]) [µM] | Ratio Conc./Ki (A3) [1] | further results
1 |  | CNC(=O)[C@H]1O[C@@H](n2cnc3c(NCc4cccc(I)c4)nc(Cl)nc32)[C@H](O)[C@@H]1O [2-chloro-N^6-(3-iodobenzyl)-adenosine-5'-N-methyluronamide, reference compound] |  |  | agonist efficacy in inhibition of adenylate cyclase ([1]; in words): full agonist; agonist potency in inhibition of adenylate cyclase ([1]; in words, vs. other agonists): greater than that of other agonists
2 |  | CNC(=O)[C@H]1O[C@@H](n2cnc3c(NCc4cccc(I)c4)ncnc32)[C@H](O)[C@@H]1O [IB-MECA, N^6-(3-iodobenzyl)adenosine-5'-N-methyluronamide] |  |  | cerebroprotective effects, NMDA-induced seizures [2]: cerebroprotective effects; cerebroprotective effects, ischemic model [3]: cerebroprotective effects
3 |  | OC[C@H]1O[C@@H](n2cnc3c(NCc4cccc(I)c4)nc(Cl)nc32)[C@H](O)[C@@H]1O [2-chloro-N^6-(3-iodobenzyl)-adenosine] |  |  | tolerance of 2-substitution at A3 receptors (A3 receptors [4]): well-tolerated
4 |  | CC(C)[Si]1(C(C)C)OC[C@H]2O[C@@H](n3cnc4c(NCc5cccc(I)c5)nc(Cl)nc43)[C@H](O)[C@@H]2O[Si](C(C)C)(C(C)C)O1 [Compound 45, 2-Chloro-9-(3,5-1,1,3,3-Tetraisopropyldisiloxyl-β-D-5-Ribofuranosyl)-N^6-(3-Iodobenzyl)adenine] | 66.3 ± 19.8 | 7.6 | % Inhibition (A2a) (rat brain A2a receptor; at 10^-4, [^3 H]CGS 21680, rat brain): 18 ± 2%; inhibition at 100 µM [1, 8]: 8.7%
5 |  | CNC(=O)[C@@H]1C[C@H](F)[C@H](n2cnc3c(NCc4cccc(I)c4)nc(Cl)nc32)O1 [Compound 44, 2-Chloro-9-(2',3'-Dideoxy-2'-Fluoro-β-D-5'-Methyl-Arabinofuronamido)-N^6-(3-Iodobenzyl)adenine] |  | 5.6 | inhibition at 100 µM [1, 8]: 11.2%
6 |  | Nc1ccc(CCNc2ncnc3c2ncn3[C@@H]2O[C@H](CO)[C@@H](O)[C@H]2O)cc1 [APNEA, N^6-2-(4-aminophenyl)ethyladenosine] |  |  | activity at the A3 receptor (A3 receptors [5]): agonists for the A3 receptor; cardioprotective potential of A3 receptor activation (A3 receptor): has been demonstrated
7 |  | CCNC(=O)[C@H]1O[C@@H](n2cnc3c(NCc4ccccc4)ncnc32)[C@H](O)[C@@H]1O [N^6-benzyladenosine-5'-N-ethyluronamide, reference compound] |  |  | selectivity for rat A3 receptors vs. either A1 or A2a receptors in binding assays (A3 receptors [4]): only one order of magnitude selective; agonist efficacy in inhibition of adenylate cyclase ([1]; in words): full agonists
8 |  | CCNC(=O)[C@H]1O[C@@H](n2cnc3c(N)nc(NCCc4ccc(CCC(=O)NCCN)cc4)nc32)[C@H](O)[C@@H]1O [APEC] |  |  | tolerance of 2-substitution at A3 receptors (A3 receptors [4]): well-tolerated
9 |  | Clc1nc(NCc2cccc(I)c2)c2ncn(C3CCCO3)c2n1 (centres unmarked) [Compound 30, 2-Chloro-N-(3-Iodobenzyl)-9-(2-Tetrahydrofuryl)-9H-Purin-6-Amine] |  |  | Ki (rat brain A1 receptor): 0.174 ± 0.017 µM; Ki (rat brain A2a receptor): 4.12 ± 0.18 µM
10 | 2.7 ± 0.56 | Cn1cnc2c(NCc3cccc(I)c3)nc(Cl)nc21 [Compound 6, 2-Chloro-N^6-(3-Iodobenzyl)-9-Methyladenine] | 0.45 ± 0.11 |  | 
11 | 1.24 ± 0.11 | COc1nc(NCc2cccc(I)c2)c2ncn(C)c2n1 [Compound 15, N^6-(3-Iodobenzyl)-2-Methoxy-9-Methyladenine] | 0.5 ± 0.21 |  | 
12 | 15.1 ± 1.6 | OCCn1cnc2c(NCc3cccc(I)c3)ncnc21 [Compound 18, N^6-(3-Iodobenzyl)-9-Hydroxyethyladenine] | 22.9 ± 3.7 |  | 
13 | 6.22 ± 2.71 | CNC(=O)[C@H]1O[C@@H](n2cnc3c(NCc4ccco4)ncnc32)[C@H](O)[C@@H]1O [Compound 74, 1-(6-Furfurylamino-9H-Purin-9-yl)-1-Deoxy-N-Methyl-β-D-Ribofuranosiduronamide] | 8.61 ± 2.55 |  | 
14 |  | CNc1nc(NCc2cccc(I)c2)c2ncn([C@@H]3OC[C@@H](O)[C@H]3O)c2n1 [Compound 29, 9-(β-D-Erythrofuranoside)-2-Methylamino-N^6-(3-Iodobenzyl)adenine] |  |  | Ki (rat brain A1 receptor): 0.66 ± 0.01 µM; Ki (rat brain A2a receptor): 3.39 ± 0.29 µM
15 | 18.7 ± 5.8 | N#CCCCn1cnc2c(NCc3cccc(I)c3)ncnc21 [Compound 22, N^6-(3-Iodobenzyl)-9-(3-Cyanopropyl)adenine] | 6.03 ± 1.37 |  | 
16 |  | O[C@@H]1[C@H](O)CO[C@H]1n1cnc2c(NCc3cccc(I)c3)nc(Cl)nc21 [Compound 28, 2-Chloro-9-(b-D-erythrofuranoside)-N^6-(3-iodobenzyl)adenine] |  | 360 | Ki (rat brain A1 receptor): 0.811 ± 0.123 µM; Ki (rat brain A2a receptor): 2.89 ± 1 µM; inhibition at 100 µM [1, 8]: 42.2%
17 |  | CSc1nc(NCc2cccc(I)c2)c2ncn(C[C@@H](O)CO)c2n1 [Compound 19b, R-N^6-(3-Iodobenzyl)-9-(2,3-dihydroxypropyl)-2-methylthioadenine] |  | 4.6 | Effect on IB-MECA dose-resp. curve ([1]; 1 μM forskolin): c; inhibition at 40 µM [1, 8]: 7.4 ± 3.7%
18 |  | O=C(O)Cn1cnc2c(NCc3cccc(I)c3)ncnc21 [Compound 21, N^6-(3-Iodobenzyladenin-9-yl)acetic Acid] |  |  | % Inhibition (A1) (rat brain A1 receptor; at 10^-4, [^3 H]PIA, rat brain): 17%; % Inhibition (A2a) (rat brain A2a receptor): 9%
19 | 3.56 ± 0.84 | CNc1nc(NCc2cccc(I)c2)c2ncn(C)c2n1 [Compound 11, N^6-(3-Iodobenzyl)-2-Methylamino-9-Methyladenine] | 0.648 ± 0.102 |  | 
20 | 18.9 ± 1.9 | OC[C@@H](O)Cn1cnc2c(NCc3cccc(I)c3)ncnc21 [Compound 19, R--N^6-(3-Iodobenzyl)-9-(2,3-Dihydroxypropyl)adenine] | 13.8 ± 2.2 |  | 
21 |  | CCCCCCNc1nc(NCc2cccc(I)c2)c2ncn(C)c2n1 [Compound 14, 2-Hexylamino-N^6-(3-Iodobenzyl)-9-Methyladenine] |  |  | Ki (rat brain A1 receptor): 4.48 ± 0.82 µM; % Inhibition (A2a) (rat brain A2a receptor): 11 ± 4%

Row | SMILES | Ki (rat brain A2a receptor; [7]) [µM] | Ki (rat brain A1 receptor; [6]) [µM] | Ratio Conc./Ki (A3) [1] | further results
22 | CNC(=O)[C@@H]1CC[C@H](n2cnc3c(NCc4ccccc4)nc(Cl)nc32)O1 [Compound 40, 2-Chloro-9-(2,3-Dideoxy-β-D-5-Methyl-Ribofuronamido)-N^6 -Benzyladenine] | 220 ± 65 | 11.5 ± 1.3 | 1.3 | Effect on IB-MECA dose-resp. curve ([1]; 1 μM forskolin): c; inhibition at 40 µM [1, 8]: 18.1 ± 8.7%
23 | CNC(=O)[C@@H]1C[C@@H](O)[C@H](n2cnc3c(NCc4cccc(I)c4)nc(Cl)nc32)O1 [Compound 41b, 2-Chloro-9-(3-Deoxy-β-D-5-Methyl-Ribofuronamido)-N^6-(3-Iodobenzyl)adenine] | 4.66 ± 0.74 | 1.03 ± 0.15 | 3000 | inhibition at 100 µM [1, 8]: 49.2 ± 3.7%
24 | CNC(=O)[C@H]1O[C@@H](n2cnc3c(NCc4cccc(I)c4)nc(Cl)nc32)[C@@H]2OC(=S)O[C@@H]21 [Compound 46, 2-Chloro-9-(2',3'-O-Thiocarbonyl-β-D-5-Methyl-Ribofuronamido)-N^6-(3-Iodobenzyl)adenine] | 0.871 ± 0.219 | 0.179 ± 0.024 | 8200 | inhibition at 100 µM [1, 8]: 54.5 ± 8.1%
25 | CSc1nc(NCc2cccc(I)c2)c2ncn(C)c2n1 [Compound 16, N^6-(3-Iodobenzyl)-9-Methyl-2-Methylthioadenine] | 1.64 ± 0.39 | 1.89 ± 0.59 | 330 | Effect on IB-MECA dose-resp. curve ([1]; 1 μM forskolin): c; inhibition at 100 µM [1, 8]: 19.5%
26 | CNC(=O)[C@@H]1C[C@@H](OC(C)=O)[C@H](n2cnc3c(NCc4cccc(I)c4)nc(Cl)nc32)O1 [Compound 37, 9-(2-Acetyl-3-Deoxy-β-D-5-Methyl-Ribofuronamido)-2-Chloro -N^6-(3-Iodobenzyl)adenine] | 15.9 ± 3.7 | 0.778 ± 0.044 | 320 | inhibition at 20 µM ([1]; CHO, 20 μM, 1 μM forskolin, average ± S.E.M. for 2-3 determinations or a single value, read-out: % Inhib. (adenylate cyclase)): 12.7 ± 1%
27 | CNC(=O)[C@@H]1C[C@H](N=[N+]=[N-])[C@H](n2cnc3c(NCc4cccc(I)c4)nc(Cl)nc32)O1 [Compound 42, 2-Chloro-9-(2'-Azido-2',3'-Dideoxy-β-D-5'-Methyl-Arabinofuronamido)-N^6 (3-Iodobenzyladenine)] | 28.1 ± 3.2 | 0.401 ± 0.041 | 17 | inhibition at 100 µM [1, 8]: 27.8%
